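Five compound concentrations were applied to cells in 96-well plates for 48 hours; endpoints were derived by simple linear interpolation of the resulting dose-response curve. TGI: concentration producing complete growth inhibition.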
How the values were obtained:
Assay in all cases: inhibition of tumour cell growth, NCI panel, 48 h
786-0 renal = tested on: 786-0 renal
A498 renal = tested on: A498 renal
A549 NSCLC = tested on: A549 NSCLC
ACHN renal = tested on: ACHN renal
BT-549 breast = tested on: BT-549 breast
CAKI-1 renal = tested on: CAKI-1 renal
CCRF-CEM leukemia = tested on: CCRF-CEM leukemia
COLO 205 colon = tested on: COLO 205 colon
DU-145 prostate = tested on: DU-145 prostate
EKVX NSCLC = tested on: EKVX NSCLC
HCC-2998 colon = tested on: HCC-2998 colon
HCT-116 colon = tested on: HCT-116 colon
HCT-15 colon = tested on: HCT-15 colon
HL-60(TB) leukemia = tested on: HL-60(TB) leukemia
HOP-92 NSCLC = tested on: HOP-92 NSCLC
HS 578T breast = tested on: HS 578T breast
IGROV1 ovarian = tested on: IGROV1 ovarian
KM12 colon = tested on: KM12 colon
LOX IMVI melanoma = tested on: LOX IMVI melanoma
M14 melanoma = tested on: M14 melanoma
MALME-3M melanoma = tested on: MALME-3M melanoma
MCF7 breast = tested on: MCF7 breast
MDA-MB-231 breast = tested on: MDA-MB-231 breast
MDA-MB-435 = tested on: MDA-MB-435
MDA-N = tested on: MDA-N
MOLT-4 leukemia = tested on: MOLT-4 leukemia
NCI-H23 lung = tested on: NCI-H23 lung
NCI-H460 lung = tested on: NCI-H460 lung
NCI-H522 lung = tested on: NCI-H522 lung
NCI/ADR-RES ovarian = tested on: NCI/ADR-RES ovarian
OVCAR-3 ovarian = tested on: OVCAR-3 ovarian
OVCAR-4 ovarian = tested on: OVCAR-4 ovarian
OVCAR-5 ovarian = tested on: OVCAR-5 ovarian
OVCAR-8 ovarian = tested on: OVCAR-8 ovarian
PC-3 prostate = tested on: PC-3 prostate
RPMI-8226 leukemia = tested on: RPMI-8226 leukemia
SF-268 CNS = tested on: SF-268 CNS
SF-295 CNS = tested on: SF-295 CNS
SF-539 CNS = tested on: SF-539 CNS
SK-MEL-2 melanoma = tested on: SK-MEL-2 melanoma
SK-MEL-28 melanoma = tested on: SK-MEL-28 melanoma
SK-MEL-5 melanoma = tested on: SK-MEL-5 melanoma
SK-OV-3 ovarian = tested on: SK-OV-3 ovarian
SN12C renal = tested on: SN12C renal
SNB-19 CNS = tested on: SNB-19 CNS
SNB-75 CNS = tested on: SNB-75 CNS
SW-620 colon = tested on: SW-620 colon
T-47D breast = tested on: T-47D breast
TK-10 renal = tested on: TK-10 renal
U251 CNS = tested on: U251 CNS
UACC-257 melanoma = tested on: UACC-257 melanoma
UACC-62 melanoma = tested on: UACC-62 melanoma
UO-31 renal = tested on: UO-31 renal
HOP-62 NSCLC = tested on: HOP-62 NSCLC
HT29 colon = tested on: HT29 colon
K-562 leukemia = tested on: K-562 leukemia
NCI-H226 lung = tested on: NCI-H226 lung
RXF 393 renal = tested on: RXF 393 renal

In the case of COC(=O)C1(C)C=CC(=O)C2(C)C1C(O)C1OC3CC(c4ccoc4)C(C)=C3C1(C)C2CC(=O)O (stereo not given), the TGI (786-0 renal) is reported as > 100 µM, the TGI (A498 renal) is reported as > 100 µM and the TGI (A549 NSCLC) is reported as > 100 µM. The TGI (ACHN renal) was > 100 µM, the TGI (BT-549 breast) was > 100 µM and the TGI (CAKI-1 renal) was > 100 µM. The TGI (CCRF-CEM leukemia) was > 100 µM, the TGI (COLO 205 colon) was > 100 µM and the TGI (DU-145 prostate) was > 100 µM. For the same compound, the TGI (EKVX NSCLC) was > 100 µM, the TGI (HCC-2998 colon) was > 100 µM and the TGI (HCT-116 colon) was > 100 µM. For the same compound, the TGI (HCT-15 colon) was > 100 µM, the TGI (HL-60(TB) leukemia) was > 100 µM and the TGI (HOP-92 NSCLC) was > 100 µM. The TGI (HS 578T breast) was > 100 µM, the TGI (IGROV1 ovarian) was > 100 µM and the TGI (KM12 colon) was > 100 µM. For the same compound, the TGI (LOX IMVI melanoma) was > 100 µM, the TGI (M14 melanoma) was > 100 µM and the TGI (MALME-3M melanoma) was > 100 µM. For the same compound, the TGI (MCF7 breast) was > 100 µM, the TGI (MDA-MB-231 breast) was > 100 µM and the TGI (MDA-MB-435) was > 100 µM. The TGI (MDA-N) was > 100 µM, the TGI (MOLT-4 leukemia) was > 100 µM and the TGI (NCI-H23 lung) was > 100 µM. The TGI (NCI-H460 lung) was > 100 µM, the TGI (NCI-H522 lung) was > 100 µM and the TGI (NCI/ADR-RES ovarian) was > 100 µM. The TGI (OVCAR-3 ovarian) was > 100 µM, the TGI (OVCAR-4 ovarian) was > 100 µM and the TGI (OVCAR-5 ovarian) was > 100 µM. The TGI (OVCAR-8 ovarian) was > 100 µM, the TGI (PC-3 prostate) was > 100 µM and the TGI (RPMI-8226 leukemia) was > 100 µM. The TGI (SF-268 CNS) was > 100 µM, the TGI (SF-295 CNS) was > 100 µM and the TGI (SF-539 CNS) was > 100 µM. For the same compound, the TGI (SK-MEL-2 melanoma) was > 100 µM, the TGI (SK-MEL-28 melanoma) was > 100 µM and the TGI (SK-MEL-5 melanoma) was > 100 µM. For the same compound, the TGI (SK-OV-3 ovarian) was > 100 µM, the TGI (SN12C renal) was > 100 µM and the TGI (SNB-19 CNS) was > 100 µM. The TGI (SNB-75 CNS) was > 100 µM, the TGI (SW-620 colon) was > 100 µM and the TGI (T-47D breast) was > 100 µM. For the same compound, the TGI (TK-10 renal) was > 100 µM, the TGI (U251 CNS) was > 100 µM and the TGI (UACC-257 melanoma) was > 100 µM. The TGI (UACC-62 melanoma) was > 100 µM and the TGI (UO-31 renal) was > 100 µM.

For COc1cc(Cc2nccc3cc(OC)c(OC)cc23)c(N=NN(C)C)cc1OC, the TGI (786-0 renal) was 18.6 µM, the TGI (A549 NSCLC) was 77.2 µM and the TGI (ACHN renal) was > 100 µM. The TGI (BT-549 breast) was 44 µM, the TGI (CAKI-1 renal) was 22.3 µM and the TGI (CCRF-CEM leukemia) was 9.33 µM. It also gave a TGI (COLO 205 colon) of 33.8 µM, a TGI (DU-145 prostate) of 35.7 µM and a TGI (EKVX NSCLC) of 42.4 µM. It also gave a TGI (HCC-2998 colon) of 28.9 µM, a TGI (HCT-116 colon) of 17.7 µM and a TGI (HCT-15 colon) of 19.6 µM. The TGI (HOP-62 NSCLC) was > 100 µM, the TGI (HS 578T breast) was 86.5 µM and the TGI (HT29 colon) was 25 µM. The TGI (IGROV1 ovarian) was 39.2 µM, the TGI (K-562 leukemia) was > 100 µM and the TGI (KM12 colon) was 40.2 µM. It also gave a TGI (M14 melanoma) of 39.3 µM, a TGI (MALME-3M melanoma) of 38.4 µM and a TGI (MCF7 breast) of 37.3 µM. It also gave a TGI (MDA-MB-231 breast) of 36.6 µM, a TGI (MDA-MB-435) of 47.3 µM and a TGI (MDA-N) of 46.1 µM. It also gave a TGI (MOLT-4 leukemia) of 90.3 µM, a TGI (NCI-H226 lung) of 60 µM and a TGI (NCI-H23 lung) of 48.7 µM. For the same compound, the TGI (NCI-H460 lung) was 22.3 µM, the TGI (NCI/ADR-RES ovarian) was 96.7 µM and the TGI (OVCAR-3 ovarian) was 73.9 µM. The TGI (OVCAR-4 ovarian) was 70.7 µM, the TGI (OVCAR-5 ovarian) was 40.9 µM and the TGI (OVCAR-8 ovarian) was 60 µM. It also gave a TGI (PC-3 prostate) of 56.8 µM, a TGI (RPMI-8226 leukemia) of 39.7 µM and a TGI (RXF 393 renal) of 16.4 µM. For the same compound, the TGI (SF-268 CNS) was 77.8 µM, the TGI (SF-295 CNS) was 74.9 µM and the TGI (SK-MEL-2 melanoma) was 70.2 µM. For the same compound, the TGI (SK-MEL-28 melanoma) was 31.1 µM, the TGI (SK-MEL-5 melanoma) was 26.4 µM and the TGI (SK-OV-3 ovarian) was 49.2 µM. The TGI (SN12C renal) was 41.3 µM, the TGI (SNB-19 CNS) was 85.2 µM and the TGI (SNB-75 CNS) was > 100 µM. For the same compound, the TGI (SW-620 colon) was 37.9 µM, the TGI (T-47D breast) was 25.4 µM and the TGI (TK-10 renal) was 44.1 µM. The TGI (U251 CNS) was 72 µM, the TGI (UACC-257 melanoma) was 44.9 µM and the TGI (UACC-62 melanoma) was 28.9 µM. The TGI (UO-31 renal) was 44.8 µM.

Reference: PubChem BioAssay (NCI)
